Test [1] has as its system pentobarbital anaesthetized rats subject to coronary artery occlusion. The note with it: rat, in vivo.
In test [2] the test system is pentobarbital anaesthetized rats. The note with it: rat, in vivo.

SMILES strings stand for the structures. Structures can show the parent of a compound that is named as a salt.

`C=CCN1CC[C@]23c4c5ccc(O)c4O[C@H]2C(=O)CC[C@@]3(O)[C@H]1C5` [naloxone, naloxone hydrochloride]: the “incidence of VF arrhythmias” value in test [1] is reported as “slightly decreased”. In test [2], this compound displayed a BP of 103±5, an HR of 379±6, a PR of 57±1 and a QRS of 29±1. This compound registered a QT in test [2] of 41±1.

The values are drawn from patent EP0632806B1 (priority 1992, dated 1993).
